According to paper PMC4841536, “Characterization of the Anti-HCV Activities of the New Cyclophilin Inhibitor STG-175” (PLoS ONE, 2016):
pEC50, pIC50: −log10 of the molar value. Like-named read-outs stand apart in the source and are kept apart here.

Experiments:
[1] = test system: HCV GT4a subgenomic replicon ED43/SG-Feo; test: Luciferase reporter replicon antiviral assay, GT4a; assay type: cell-based; conditions: Hepatitis C virus
Protocol: (§1) The anti-HCV activity of STG-175 was conducted using a panel of luciferase reporter replicon cell lines including GT1a, GT1b, GT2a, GT3a and GT4a as we described previously. The GT1a subgenomic renilla luciferase reporter replicon H77 RLucP (7) was supplied by Dr. Delaney. The GT1b subgenomic firefly luciferase reporter replicon pFK-I389/NS3-3’ [29] was supplied by Dr. Bartenschlager. The GT1B subgenomic NS3, NS5A and NS5B mutants were created via homologous recombination using the In-Fusion HD Cloning kit (Clontech) as we described previously. The GT2a genomic luciferase reporter replicon Luc-Neo-JFH-1 was generated as previously. The plasmid pFK-Luc-JFH1 was supplied from Drs. […] The CellTiter-Fluor™ Cell Viability Assay is a non-lytic fluorescence assay, which measures the number of live cells. […] Luciferase activity was determined using the Luciferase Assay System (Promega) in a Berthold luminometer. […] Viable cells continuously convert resazurin to resorufin, increasing the overall fluorescence and color of the media surrounding cells.
(§2) Fig 2 Anti-HCV activities of STG-175 among GTs. […] Luciferase activity was determined using the Luciferase Assay System in a Berthold luminometer. […] Data are expressed as mean of relative light units and calculated EC50s are presented. […]

[2] = alamarBlue cytotoxicity (CC50), GT3a replicon cell line; conditions: human
Protocol: as §1, §2

[3] = test system: GT2a replicon cell line; test: alamarBlue cytotoxicity (CC50), GT2a replicon cell line; conditions: GT2a replicon cell line
Protocol: as §1, §2

[4] = as above; conditions: human
Protocol: as §1, §2

[5] = test system: HIV-1 in mixed PBMCs, NTCP-Huh7 and Huh7.5.1 cells; test: Dual/triple co-infection in cell co-cultures, HIV-1 readout; assay type: cell-based
[6] = test system: HCV GT1b subgenomic replicon pFK-I389/NS3-3’; test: Luciferase reporter replicon antiviral assay, GT1b; assay type: cell-based; conditions: Hepatitis C virus
Protocol: The anti-HCV activity of STG-175 was conducted using a panel of luciferase reporter replicon cell lines including GT1a, GT1b, GT2a, GT3a and GT4a as we described previously. The GT1a subgenomic renilla luciferase reporter replicon H77 RLucP (7) was supplied by Dr. Delaney. The GT1b subgenomic firefly luciferase reporter replicon pFK-I389/NS3-3’ [29] was supplied by Dr. Bartenschlager. The GT1B subgenomic NS3, NS5A and NS5B mutants were created via homologous recombination using the In-Fusion HD Cloning kit (Clontech) as we described previously. The GT2a genomic luciferase reporter replicon Luc-Neo-JFH-1 was generated as previously. The plasmid pFK-Luc-JFH1 was supplied from Drs. Wakita and Pietschmann and the XbaI site in the firefly luciferase gene and the NotI site in the EMCV IRES were used to take the Luciferase/Ubiquitin-NPT II (the neomycin phosphotransferase II gene) fusion cassette out of pFK389ILuc-Neo (wild-type replicon from GT1b) and inserted into the pFK-Luc-JFH1 plasmid, generating full-length Luc-Neo-JFH-1 [30]. The GT3a subgenomic firefly luciferase reporter replicon S52/SG-Feo (AI) and the GT4a subgenomic firefly luciferase reporter replicon ED43/SG-Feo [33] were supplied by Drs. Rice and Bukh. Replicons were stably expressed in Huh7.5 or Huh7.5.1 cells under G418 selection. On Day 1, cells (5,000) were plated into 96-well plates in complete DMEM containing 10% FCS. On Day 2, increasing drug concentrations were added to wells. On Day 5, 72 h post-drug addition, medium was removed and replaced with 100 μL of fresh medium. Hundred μL of the fluorogenic, cell-permeant peptide substrate glycyl-phenylalanyl-amino fluorocoumarin was added to wells as per manufacturer’s recommendation (Promega Corp, Madison, WI). The CellTiter-Fluor™ Cell Viability Assay is a non-lytic fluorescence assay, which measures the number of live cells. […] Medium was removed, cells washed and lysed in 20 μL of Cell Culture Lysis Reagent. Luciferase activity was determined using the Luciferase Assay System (Promega) in a Berthold luminometer. The alamarBlue® assay (Thermo Fischer Scientific) was used to measure CC50s for STG-175 on replicon cell lines. When cells are alive they maintain a reducing environment within the cytosol of the cell. […] Upon entering cells, resazurin is reduced to resorufin, a compound that is red in color and highly fluorescent. Viable cells continuously convert resazurin to resorufin, increasing the overall fluorescence and color of the media surrounding cells.
Fig 2 Anti-HCV activities of STG-175 among GTs. A. Replicon-containing cells (5,000) were exposed to increasing concentrations of the indicated drugs. Seventy-two hours post-drug addition, the fluorogenic, cell-permeant peptide substrate glycyl-phenylalanyl-amino fluorocoumarin was added to measure the number of live cells. […] Luciferase activity was determined using the Luciferase Assay System in a Berthold luminometer. B. A similar experiment was conducted with the GT1b replicon cell line in 0, 5, 10, 20 and 40% of human serum. Data are expressed as mean of relative light units and calculated EC50s are presented. […] C.

[7] = test system: IL-2 promoter activation in Jurkat T-cell line; test: In vitro assay for immunosuppression: IL-2 promoter activation in engineered Jurkat T-cell line (betagalactosidase); assay type: cell-based
Protocol: IL-2 promoter activation upon T-cell stimulation was determined using an engineered Jurkat T-cell line, which expresses betagalactosidase when exposed to chemical non-specific factors like […] (PMA) and phytohematogglutinin (PHA) as described previously. DMSO or STG-175 were added together with PMA (10 ng/mL) to 1 million of Jurkat cells (triplicates). Betagalactosidase activity in cell lysates was quantified by fluorescence (460 nm) after 24 h.
Fig 1 Anti-PPIase and immunosuppressive activities of STG-175. A. Structures of cyclophilin inhibitors. Inhibition of CypA (B) and CypD (C) isomerase activities were assessed using the α-chymotrypsin-coupled assay. Each test compound was prepared at 10 concentrations (0.05–1000 nM). All solutions were equilibrated, and reactions conducted at 5°C. Reactions were initiated by mixing 95 μL reaction mix with 5 μL of the peptide to be cleaved and measuring OD405 nm at 6-sec intervals for 6 min. Data were fitted with Graphpad Prism 6.0 to obtain first-order rate constants. Enzyme catalyzed rate constants were calculated by subtracting the rate constant from uncatalyzed reactions (no CypA/D), and catalytic rate constants plotted as a function of inhibitor concentration to obtain IC50s. […] D. IL-2 promoter activation upon T-cell stimulation was determined using an engineered Jurkat T-cell line, which expresses betagalactosidase. Jurkat cells (1 million) were activated with PMA (10 ng/mL). […] The Y-axis values are expressed as percentage of activity. Data expressed as EC50s are representative of two independent experiments.
The formation of this trimolecular complex inhibits T cell proliferation by blocking the signaling pathway leading to IL-2 production upon T-cell stimulation. The immunosuppressive activity of STG-175 was evaluated by inhibition of the IL-2 production in Jurkat cells.

Structure (SMILES): CC=CCC(C)C(O)C1C(=O)NC(CC)C(=O)N(C)C(CSCCCCO)C(=O)N(C)C(CC(C)(C)O)C(=O)NC(C(C)C)C(=O)N(C)C(CC(C)C)C(=O)NC(C)C(=O)NC(C)C(=O)N(C)C(CC(C)C)C(=O)N(C)C(CC(C)C)C(=O)N(C)C(C(C)C)C(=O)N1C (stereo not drawn) [STG-175]
- pEC50 ([1]; 72 h, read-out: EC50 GT4a): 7.82
- pEC50 ([1]; read-out: EC50 GT4a (Fig 2D)): 7.82
- CC50 at 72 h [2]: > 10000 nM
- cell viability toward increasing doses (alamarBlue) [3]: lack of cellular cytotoxicity
- CC50 at 72 h [4]: > 10000 nM
- HIV-1 infection in co-infection ([5]; STG-175 added together with virus): totally blocked
- established HIV-1 infection in co-infection ([5]; added 3 days post-infection and then every 3 days): almost totally aborted
- pEC50 ([6]; 0% human serum, read-out: EC50 GT1b in human serum): 7.80
- pEC50 ([6]; 5% human serum, read-out: EC50 GT1b in human serum): 7.82
- pEC50 ([6]; 10% human serum, read-out: EC50 GT1b in human serum): 7.73
- pEC50 ([6]; 20% human serum, read-out: EC50 GT1b in human serum): 7.65
- pEC50 ([6]; 40% human serum, read-out: EC50 GT1b in human serum): 7.43
- pEC50 ([6]; 72 h, 72 h post-drug addition, luciferase, read-out: EC50 GT1b): 7.82
- pIC50 ([7]; Homo sapiens, Jurkat, 24 h, read-out: IC50, inhibition of IL-2 production (immunosuppressive activity)): 6.80
- times less immunosuppressive activity than CsA ([7]; Jurkat IL-2): approximately 1000 times
